In the test the test system is B6C3F1 mice, Lewis lung carcinoma iv, survival T/C. The experiment in a line: NCI In Vivo Anticancer Drug Screen. Data for tumor model Lewis Lung Carcinoma (intravenous) in B6C3F1 mice. The settings on record: endpoint: median survival time, higher = longer survival. Summed up: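 Mice carrying transplanted tumors received test compound; survival in the treated group was divided by that of the vehicle-treated control group to give the T/C value.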

Where [1] appears, read: dose: 25.0 mg/kg/injection, schedule: Q01DX009 (ip), vehicle: saline.
Where [2] appears, read: dose: 50.0 mg/kg/injection, schedule: Q01DX009 (ip), vehicle: saline.
Setting [3] is: dose: 100.0 mg/kg/injection, schedule: Q01DX009 (ip), vehicle: saline.
Where [4] appears, read: dose: 200.0 mg/kg/injection, schedule: Q01DX009 (ip), vehicle: saline.
Where [5] appears, read: dose: 400.0 mg/kg/injection, schedule: Q01DX009 (ip), vehicle: saline.
Where [6] appears, read: dose: 12.5 mg/kg/injection, schedule: Q01DX009 (ip), vehicle: saline.
[7] abbreviates: dose: 1.56 mg/kg/injection, schedule: Q01DX009 (ip), vehicle: saline with Tween-80.
[8] abbreviates: dose: 3.12 mg/kg/injection, schedule: Q01DX009 (ip), vehicle: saline with Tween-80.
Setting [9] is: dose: 6.25 mg/kg/injection, schedule: Q01DX009 (ip), vehicle: saline with Tween-80.
Setting [10] is: dose: 12.5 mg/kg/injection, schedule: Q01DX009 (ip), vehicle: saline with Tween-80.

Values joined by “and” are separate entries in the source; they are usually repeats but may differ in a detail not shown here. Equal values may be shown once. Toxic doses and inconclusive results are not listed.

In the case of `O=C(NO)c1ccc(O)c(O)c1`, the T/C is, setting by setting: under setting [1], 100 % of control; under setting [2], 98 % of control; (dose: 50.0 mg/kg/injection, schedule: Q01DX009 (ip), vehicle: suspension in saline) 98 % of control; under setting [3], 101 % of control; (dose: 100.0 mg/kg/injection, schedule: Q01DX009 (ip), vehicle: suspension in saline) 110 % of control; under setting [4], 100 % of control. For the same molecule, the T/C runs as follows: (dose: 200.0 mg/kg/injection, schedule: Q01DX009 (ip), vehicle: suspension in saline) 118 % of control; under setting [5], 158 % of control; (dose: 400.0 mg/kg/injection, schedule: Q01DX009 (ip), vehicle: suspension in saline) 124 % of control.
Take `C=CCc1cn(C2CC(O)C(CO)O2)c(=O)[nH]c1=O` (stereo unspecified): the T/C is 100 % of control under setting [6]; 88 % of control under setting [1]; 87 % of control under setting [2]; 100 % of control under setting [3]; 96 % of control under setting [4]; 98 % of control under setting [5].
With `CO[C@@H]1[C@H](O)CC[C@]2(CO2)[C@H]1[C@@]1(C)O[C@@H]1CC=C(C)C`, the T/C runs as follows: under setting [7], 95 % of control and 101 % of control; under setting [8], 95 % of control and 103 % of control; under setting [9], 93 % of control and 101 % of control; under setting [10], 101 % of control; (dose: 25.0 mg/kg/injection, schedule: Q01DX009 (ip), vehicle: saline with Tween-80) 106 % of control and 115 % of control; (dose: 50.0 mg/kg/injection, schedule: Q01DX009 (ip), vehicle: saline with Tween-80) 103 % of control and 107 % of control.
For the molecule `COc1cc(C2c3cc4c(cc3[C@@H](OC3OC5CO[C@@H](C)OC5C(O)C3O)[C@H]3COC(=O)C23)OCO4)cc(OC)c1OC` (stereo partly specified), the T/C is 113 % of control under setting [6], 121 % of control under setting [1], 117 % of control under setting [2] and 191 % of control under setting [3].
As to `Cn1c2ccccc2c2ccc3c(c21)C(=O)C=CC3=O`, the T/C runs as follows: under setting [7], 99 % of control; under setting [8], 106 % of control; under setting [9], 107 % of control; under setting [10], 93 % of control and 101 % of control.
With `COc1ccc2[nH]c3ccc4cc[n+](CCN5CCC(C6CCN(CC[n+]7ccc8ccc9[nH]c%10ccc(OC)cc%10c9c8c7)CC6)CC5)cc4c3c2c1`, the T/C was 106 % of control (dose: 6.25 mg/kg/injection, schedule: Q01DX009 (ip), vehicle: Klucel (hydroxypropylcellulose) (HPC)); 91 % of control and 103 % of control (dose: 12.5 mg/kg/injection, schedule: Q01DX009 (ip), vehicle: Klucel (hydroxypropylcellulose) (HPC)); 99 % of control (dose: 25.0 mg/kg/injection, schedule: Q01DX009 (ip), vehicle: Klucel (hydroxypropylcellulose) (HPC)).
As for `Cc1ccc(S(=O)(=O)OCOS(=O)(=O)c2ccc(C)cc2)cc1`, the T/C (dose: 50.0 mg/kg/injection, schedule: Q01DX009 (ip), vehicle: Klucel (hydroxypropylcellulose) (HPC)) was 107 % of control; the T/C (dose: 100.0 mg/kg/injection, schedule: Q01DX009 (ip), vehicle: Klucel (hydroxypropylcellulose) (HPC)) is 103 % of control; the T/C (dose: 200.0 mg/kg/injection, schedule: Q01DX009 (ip), vehicle: Klucel (hydroxypropylcellulose) (HPC)) is 108 % of control; the T/C (dose: 400.0 mg/kg/injection, schedule: Q01DX009 (ip), vehicle: Klucel (hydroxypropylcellulose) (HPC)) is 117 % of control.
For `O=NN(CCCl)C(=O)Oc1ccc(OC(=O)N(CCCl)N=O)cc1`, the T/C was 95 % of control (dose: 0.5 mg/kg/injection, schedule: Q01DX009 (ip), vehicle: Klucel (hydroxypropylcellulose) (HPC)); 96 % of control (dose: 1.0 mg/kg/injection, schedule: Q01DX009 (ip), vehicle: Klucel (hydroxypropylcellulose) (HPC)); 105 % of control (dose: 2.0 mg/kg/injection, schedule: Q01DX009 (ip), vehicle: Klucel (hydroxypropylcellulose) (HPC)); 97 % of control (dose: 3.12 mg/kg/injection, schedule: Q01DX009 (ip), vehicle: Klucel (hydroxypropylcellulose) (HPC)); 111 % of control (dose: 4.0 mg/kg/injection, schedule: Q01DX009 (ip), vehicle: Klucel (hydroxypropylcellulose) (HPC)).
For `Nc1ccn(C2OC(CO)C(O)C2O)c(=O)n1` (stereo unspecified), the T/C was 98 % of control (dose: 1.0 mg/kg/injection, schedule: Q01DX009 (ip), vehicle: saline); 97 % of control (dose: 2.0 mg/kg/injection, schedule: Q01DX009 (ip), vehicle: saline); 100 % of control (dose: 4.0 mg/kg/injection, schedule: Q01DX009 (ip), vehicle: saline); 110 % of control (dose: 15.0 mg/kg/injection, schedule: Q01DX009 (ip), vehicle: saline); 160 % of control under setting [2]; 203 % of control under setting [3].
Turning to `N#CC(=C1SCS1)[N+](=O)[O-]`, the T/C is 98 % of control (dose: 0.37 mg/kg/injection, schedule: Q01DX009 (ip), vehicle: saline with Tween-80); 107 % of control (dose: 0.75 mg/kg/injection, schedule: Q01DX009 (ip), vehicle: saline with Tween-80); 106 % of control (dose: 1.5 mg/kg/injection, schedule: Q01DX009 (ip), vehicle: saline with Tween-80); 109 % of control (dose: 3.0 mg/kg/injection, schedule: Q01DX009 (ip), vehicle: saline with Tween-80); 106 % of control (dose: 6.0 mg/kg/injection, schedule: Q01DX009 (ip), vehicle: saline with Tween-80); 92 % of control (dose: 12.0 mg/kg/injection, schedule: Q01DX009 (ip), vehicle: saline with Tween-80).
Consider `O=c1[nH]cccc1O`, for which the T/C was 98 % of control (dose: 16.0 mg/kg/injection, schedule: Q01DX009 (ip), vehicle: saline with Tween-80); 94 % of control (dose: 32.0 mg/kg/injection, schedule: Q01DX009 (ip), vehicle: saline with Tween-80); 103 % of control (dose: 64.0 mg/kg/injection, schedule: Q01DX009 (ip), vehicle: saline with Tween-80); 101 % of control (dose: 256.0 mg/kg/injection, schedule: Q01DX009 (ip), vehicle: saline with Tween-80).
As to `CCc1ncnc2cc(OCC3CO3)c(OC)cc12` (stereo unspecified), the T/C was 98 % of control (dose: 3.13 mg/kg/injection, schedule: Q01DX009 (ip), vehicle: saline); 100 % of control and 106 % of control (dose: 6.25 mg/kg/injection, schedule: Q01DX009 (ip), vehicle: saline); 102 % of control and 104 % of control under setting [6]; 117 % of control and 118 % of control under setting [1].
Take `CC[PH+](CC)CC[S-].CC[PH+](CC)CC[S-].[Au+].[Au+]`: the T/C was 99 % of control (dose: 2.5 mg/kg/injection, schedule: Q01DX009 (ip), vehicle: Klucel (hydroxypropylcellulose) (HPC)); 100 % of control (dose: 5.0 mg/kg/injection, schedule: Q01DX009 (ip), vehicle: Klucel (hydroxypropylcellulose) (HPC)); 98 % of control (dose: 10.0 mg/kg/injection, schedule: Q01DX009 (ip), vehicle: Klucel (hydroxypropylcellulose) (HPC)); 96 % of control (dose: 20.0 mg/kg/injection, schedule: Q01DX009 (ip), vehicle: Klucel (hydroxypropylcellulose) (HPC)).
Consider `C=C(C)/C([O-])=N/[N+](C)(C)CC(O)CCCCCCCCCCCC` (stereo unspecified), for which the T/C was 96 % of control (dose: 1.56 mg/kg/injection, schedule: Q01DX001 (ip), vehicle: saline); 104 % of control (dose: 3.12 mg/kg/injection, schedule: Q01DX001 (ip), vehicle: saline); 98 % of control (dose: 6.25 mg/kg/injection, schedule: Q01DX001 (ip), vehicle: saline); 109 % of control (dose: 12.5 mg/kg/injection, schedule: Q01DX001 (ip), vehicle: saline); 103 % of control and 106 % of control (dose: 25.0 mg/kg/injection, schedule: Q01DX001 (ip), vehicle: saline); 98 % of control and 100 % of control (dose: 50.0 mg/kg/injection, schedule: Q01DX001 (ip), vehicle: saline). For the same molecule, the T/C is 95 % of control (dose: 100.0 mg/kg/injection, schedule: Q01DX001 (ip), vehicle: saline) and 97 % of control (dose: 200.0 mg/kg/injection, schedule: Q01DX001 (ip), vehicle: saline).
Consider `NC1(C(=O)O)CCCC1`, for which the T/C is 102 % of control under setting [1]; 109 % of control and 111 % of control and 120 % of control under setting [2]; 121 % of control under setting [3].

The values above are taken from PubChem BioAssay AID276 (DTP/NCI, 2004).
